Source: a melting point compilation (Tetko et al.; mined from patent text by program, amines drawn as free bases though some values may be those of a salt)

Row | SMILES | melting point
1 | O=C1CCC(c2ccc(-n3ccnc3)nc2)=NN1 | 276 to 278 °C
2 | O=C1CCCN1c1cccc(-n2cnc3cc(Br)cnc32)c1 | 194 to 195 °C
3 | O=C(Cc1ccc2[nH]cc(CCN3C(=O)c4ccccc4C3=O)c2c1)N1CCOCC1 | 140 to 141 °C
4 | CN1CCN(c2n[nH]c(-c3ccc(Cl)cc3)c2-c2ccncc2)CC1 | 262 to 264 °C
5 | O=c1[nH]c2cc(Cl)ccc2c(O)c1Sc1ccccc1Cl | > 300 °C
6 | O=C(O)c1cccc(C[C@@H]2COc3ccc(OCc4ccccn4)cc3[C@@H]2O)c1 (relative stereo) | 196 to 198 °C
7 | ClC(=NNc1cc(Cl)ccc1Cl)c1ccccc1 | 84.5 to 86 °C
8 | CCC(O)(c1cncc(OCc2ccc3ccccc3c2)c1)c1nccs1 (centres undefined) | 48 to 50 °C
9 | CC(C)(O)CNC(=O)c1ccc(-c2ccc(C(CC3CCOCC3)c3ccc(S(=O)(=O)C4CC4)cc3)[nH]2)nc1 (centres undefined) | 126 to 128 °C
10 | Cc1ccc(C(=O)c2cnn3c(-c4cccc(N(C)C(=O)C5CC5)c4)ccnc23)cc1 | 189 to 190 °C
11 | CCOC(=O)c1ccc(-n2nc(C(F)(F)F)cc2-c2ccc(S(C)(=O)=O)cc2)cc1 | 159 to 161 °C
12 | COc1ccc(Cc2c(F)cccc2F)c(N(CC(N)=O)S(=O)(=O)c2ccc(OC)c(OC)c2)c1 | 188 °C
13 | O=C(O)CCN1CCN(c2ccccc2)CC1 | 213 to 215 °C
14 | O=C(Cl)COC(=O)c1ccccc1 | 25 to 26 °C
15 | CNC(=S)N(C)Cc1cnc(Cl)s1 | 129 to 131 °C
16 | OC1N=C(c2ccccc2F)c2cc(Cl)ccc2-c2ncncc21 (centres undefined) | 186 to 188 °C
17 | COC(=O)c1cccc(-c2c(C)cc(OC3CCS(=O)(=O)CC3)cc2C)c1 | 180 °C
18 | Cn1cc(C2CCN(CCCCNC(=O)c3sc(-c4ccc(C(F)(F)F)cc4)nc3CO)CC2)c2ccccc21 | 160 °C
19 | NC(=O)c1ncn2c1CN=C(c1ccccc1Cl)c1cc(Cl)ccc1-2 | > 300 °C
20 | COC(=O)CC(Sc1cc(C(C)(C)C)c(O)c(C(C)(C)C)c1)C(=O)OC (centres undefined) | 94 to 96 °C
21 | Nc1cc(CN2CCC2)cc(C(F)(F)F)c1 | 60 to 61 °C
22 | CCCN(CCC)C1Cc2cccc3[nH]c(=O)n(c23)C1 (centres undefined) | 190 to 192 °C
23 | C=CCc1cc2c(c(CC=C)c1O)S(=O)CN2CC=C (centres undefined) | 110 to 111 °C

Row | SMILES | melting point
24 | O=C(NC1CCc2n[nH]cc2C1)[C@@H]1CCCN1C(=O)[C@@H](CC1CCCCC1)NS(=O)(=O)Cc1ccccc1 (some centres undefined) | 106 to 109 °C
25 | CC(Cl)=CCC1CCC2C(C=CC3=CCCc4c3n2c2ccncc42)C1 (centres undefined) | 130 to 132 °C
26 | CC(C)(C)C(NC(=O)Cc1ccc(C#N)cc1)NC(=NC#N)Nc1cccc2ncccc12 (centres undefined) | 194 to 196 °C
27 | CC(=O)N1CC(CCN2CC=CCC2c2ccc(C(F)(F)F)cc2)c2ccccc21 (centres undefined) | 85 to 88 °C
28 | CC(=O)OC1CSC(Oc2cncc(-c3ccc(F)nc3)c2)C(OC(C)=O)C1OC(C)=O (centres undefined) | 167 to 169 °C
29 | COc1ccc(-c2ncc(Cc3ccccc3)nc2-c2ccc(OC)cc2)cc1 | 107 to 109 °C
30 | CN1CC(CN=[N+]=[N-])CC2c3cccc4c3c(cn4C)CC21 (centres undefined) | 168 to 169 °C
31 | N#CC(C#N)=C1C(=O)Nc2ccc(S(=O)(=O)N3CCCC3COc3ccccc3)cc21 (centres undefined) | 246 to 248 °C
32 | Cc1cccc(-c2cc(C(F)(F)F)n3cnc(C#N)c3n2)c1 | 202 °C
33 | COc1ccccc1-c1cccn2nc(Nc3ccc4c(c3)CCN(CC(=O)N(C)C)CC4)nc12 | 102 to 105 °C
34 | CCOC(=O)/C=C(/c1ccc(OC)cc1)c1cc(C)cc(Cl)c1 | 83 to 85 °C
35 | O=C(O)c1ccc2c(=O)n(CCCCN3CC=C(c4ccccc4)CC3)c(=O)[nH]c2c1 | 296 to 305 °C
36 | Cc1cn(-c2cc(Br)c(N)c(C(F)(F)F)c2)c(C)n1 | 149 °C
37 | C[C@@H](Cc1c2n(c3ccc(OC4CC4)cc13)CCC2)NC(=O)OC(C)(C)C | 83 to 84 °C
38 | O=C1c2ccccc2C(O)N1c1ccc2ncccc2n1 (centres undefined) | 208 °C
39 | COc1ccc(-c2ccccc2-c2ccc(S(C)(=O)=O)cc2)cc1F | 136 to 137 °C
40 | COc1ccnc(N2CCN(C(=S)c3ccccc3)CC2)n1 | 125 to 129 °C
41 | CCC(NC(C)=O)c1ccc(CN2CCN(c3ccc(F)cc3F)CC2)cc1 (centres undefined) | 137 to 138 °C
42 | CC1=NC(C)(COc2ccc(NC(=O)c3cc(F)cc(N4CCOCC4)c3)c3ccccc23)CO1 (centres undefined) | 203 to 206 °C
43 | CN1C(=O)C(c2cccc(OCC3CC3)c2)(c2cnn(CC(F)(F)F)c2)N=C1N (centres undefined) | 78 to 80 °C
44 | OCC1CCc2c([nH]c3ccc(Cl)cc23)C1 (centres undefined) | 168 to 169 °C
45 | FC(F)(F)c1cc(Cl)c(-n2cc(I)c(-c3ccccc3)n2)c(Cl)c1 | 88 to 89 °C
46 | COC(=O)C(=O)N1C(=O)[C@@H](NC(=O)OC(C)(C)C)[C@@H]1OC(C)=O | 144 to 146 °C

The remaining lines, values ahead:

Row | melting point | SMILES
47 | 148 to 150 °C | CC(C)C(OC(=O)/C=C/c1ccccc1)OC(=O)NC1(C(=O)O)CC1 (centres undefined)
48 | 110 to 111 °C | COc1cc(Nc2nccc(-c3ccc(N4CC(C)NC(C)C4)nc3)n2)cc(OC)c1OC (centres undefined)
49 | 169 to 172 °C | Cc1nn(-c2c(Cl)cc(C(F)(F)F)cc2Cl)c(N)c1C=O
50 | 227 to 229 °C | O=C(NCCO)c1ccc(C(=O)NCCO)cc1
51 | 94 to 96 °C | O=C1NC(=O)C(CCOc2ccc(F)cc2)S1 (centres undefined)
52 | 144 °C | CCC(=O)N(Cc1ccc(OC(F)(F)F)cc1)c1cc(Cl)cc(-c2nnn[nH]2)c1
53 | 107 to 108 °C | CCOC(=O)c1[nH]c2c(Cl)ccc(Cl)c2c1C
54 | 92 to 94 °C | CC(C)[C@H](NC(=O)N(C)Cc1cccnc1)C(=O)N[C@@H](Cc1ccccc1)[C@H](O)[C@@H](O)[C@H](Cc1ccccc1)NC(=O)[C@@H](NC(=O)N(C)Cc1ccccn1)C(C)C
55 | 242 to 244 °C | CCCCc1nc2c(N)nc3ccccc3c2n1CCCC(=NO)c1ccccc1
56 | 151 to 153 °C | COC(=O)n1c(SCc2nccc(SCCN3CCOCC3)c2C)nc2ccccc21
57 | 182 to 183 °C | CC(C)(C)OC(=O)NCC(=O)Nc1cccc(NC(=N)N2CCCC2)c1
58 | 140 to 141 °C | NS(=O)(=O)c1ccc(-n2nc(C(F)(F)F)cc2-c2ccc(Cl)cc2)cc1F
59 | 135 °C | CCN(CC)CCOc1cc(C(=O)NC(=N)N)c(C)c2ccc(OC)cc12
60 | 156 to 157 °C | CCCC(=O)N(Cc1ccc(-c2ccccc2-c2nc(=O)o[nH]2)cc1)c1sc(C)cc1C(=O)OC
61 | 239 °C | O=Cc1ccnc2c(NC(=O)c3c(Cl)cccc3Cl)cccc12
62 | 180 to 181 °C | O=C1c2ccccc2C2(c3ccccc3)NCCCCN12 (centres undefined)
63 | 140 to 141 °C | Cc1sc(N)c(C(=O)c2ccc(Cl)cc2)c1CN1CCN(c2cccc(F)c2)CC1
64 | 176 to 178 °C | O=C(Nc1ccc(-n2nc(-c3cccnc3)cc2C(F)F)cc1)c1ccncc1F
65 | 190 to 191 °C | Cc1ccc(O)c(Cl)n1
66 | 226 to 229 °C | Cc1c(C)c(N2CCN(c3ccc(Cl)cc3)CC2)c(C)c2c1OC(C)(C)C2
67 | 69.5 °C | C=C(CC(=O)Nc1cc(Cl)cc(Cl)c1)C(=O)OCCCC
68 | 191 to 192 °C | O=C1NCCN=C1c1ccc([N+](=O)[O-])cc1
69 | 220 to 222 °C | COc1ccccc1-c1coc2c(O)c(O)ccc2c1=O
70 | 90 to 91 °C | COC(=O)C1C(OC)=CCc2ccc(OC)cc21 (centres undefined)
71 | 153 to 155 °C | CCOC(=O)C1CN(c2ccccc2)C(=O)C1=O (centres undefined)
72 | 223 to 224 °C | CNC1([C@@H]2CCN(c3ccc4c(=O)c(C(=O)O)cn([C@@H]5C[C@@H]5F)c4c3C)C2)CC1
73 | 59 to 60 °C | OCc1ccc(O)c(CO)c1CNCCCCCCOCCCCCc1ccco1

Row | melting point | SMILES
74 | 150 to 151 °C | CC(C(=O)O)c1ccc2c(c1)Sc1ncccc1CC2=O (centres undefined)
75 | 129 to 130 °C | Cn1ccc(-c2ccc(F)cc2)c1-c1ccc(F)cc1
76 | 200 to 205 °C | Cc1ccc2c(n1)C(=O)N(c1cccc3ccccc13)C2=O
77 | 175 to 178 °C | CC(C)(C)c1cccc(C(C)(C)C)c1C(OC(N)=O)S(=O)(=O)NC(c1ccccc1)c1ccccc1 (centres undefined)
78 | 160 to 161 °C | CCOC(=O)CCCSc1ncnc2c(O)n(C)nc12
79 | 175 to 177 °C | CCOC(=O)c1c[nH]c2c(OCOC)ccc(OC)c2c1=O
80 | 227 to 233 °C | CC(=O)C1CCC2C3CCC4CC(=O)CCC4(C)C3C(O)CC12C (centres undefined)
81 | 190 to 192 °C | Cc1cc(Cl)cc2c1OC(C)(C)C(/C=C/C=C/C=C/C(=O)O)=C2
82 | 111 to 112 °C | COc1ccc(/C=C(\C#N)Cc2ccccc2)cc1OC1CCCC1
83 | 146 to 148 °C | COc1cc(Nc2c(C#N)cnc3cc(-c4cccc(CCN5CCOCC5)c4)ccc23)c(Cl)cc1Cl
84 | 165 to 166 °C | CCc1ccc(C(CC(=O)O)C(=O)O)s1 (centres undefined)
85 | 156 to 157 °C | CCOC(=O)C(=O)Nc1ccc(Cl)cc1[N+](=O)[O-]
86 | 129 to 132 °C | CCS(=O)(=O)NC(=O)c1cccc(N)c1
87 | 214 to 216 °C | CC(=O)CC(C)(C)Cn1cnc2c(N)nc3ccccc3c21
88 | 287 to 289 °C | CC(C)(C)C(=O)c1c[nH]c2ncc(N3Cc4ccccc4C3=O)nc12
89 | 93 °C | CCOC(=O)[C@H]1CC(OS(=O)(=O)c2ccc(C)cc2)CN1S(=O)(=O)c1ccc(C)cc1 (some centres undefined)
90 | 180 to 185 °C | CCOC(=O)c1cn(CC)c2cc(-c3cc(C)no3)ccc2c1=O
91 | 247 °C | Cn1c(=O)c(C#N)c(N2CCN(C(=O)c3cccs3)CC2)c2ccccc21
92 | 196 to 197 °C | Cc1cc(Nc2ccnc(Nc3ccc(S(=O)(=O)N(C)C4CCN(Cc5cncs5)CC4)cc3)n2)ccc1F
93 | 76 to 77 °C | NS(=O)(=O)OCCCCOc1ccccc1
94 | 226 °C | CCOc1cc(-c2cc(C(F)(F)F)n3ncc(-c4ccnc(C)c4)c3n2)ccc1C(F)(F)F
95 | 107 to 108 °C | CN1c2ccc(C#CCOC3CCCCO3)cc2C(=O)CS1(=O)=O (centres undefined)
96 | 109 to 111 °C | COCCCN1C[C@H](O)c2cc(S(N)(=O)=O)sc2S1(=O)=O
97 | 221 °C | Cc1cc(-c2ccc(Cl)cc2)nc(-c2cccc(-c3cccc(S(N)(=O)=O)c3)c2)n1
98 | 120 to 122 °C | Oc1ccc2cc(CNCc3ccccc3)ccc2c1
99 | 192 to 194 °C | COc1cc(C(=O)O)ccc1Oc1ccccc1N
